Experimental data from article PMC12766724, “Synthesis, Anthelmintic Activity, and Mechanism of Action of 5‑Aryl‑1H‑indoles” (Journal of Agricultural and Food Chemistry, 2025).

Legend:
[1] = system: C. elegans DA1316 avr-14(ad1305) I; avr-15(vu227) glc-1(pk54) V.; test: Chitinase assay (reproductive capacity); format: in vivo; conditions: Caenorhabditis elegans; ivermectin-resistant strain
Protocol: (§1) C. elegans strains used in this study were N2 (wild-type), levamisole-resistant strains ZZ15 (lev-8(x15) X) and […] (lev-1(e211) IV), ivermectin-resistant strain DA1316 (avr-14(ad1305) I; avr-15(vu227) glc-1(pk54) V), mebendazole-resistant strain […] (ben-1(e1880) III), and three strains with mutations in succinate dehydrogenase, RP2699, RP2700, and RP2702. The worms were cultivated on Nematode Growth Medium agar plates seeded with Escherichia coli OP50 in 20 °C according to the standard cultivation protocols. Strains RP2699, RP2700, and RP2702 were generated by Prof. Peter Roy’s group. All other strains and bacteria were purchased from the Caenorhabditis Genetics Center (CGC, Minneapolis, MN).
(§2) The effect of compounds on C. elegans was evaluated using the Chitinase assay as we described previously.
(§3) Lastly, strain DA1316 has mutations in three genes encoding subunits of the glutamate-gated chloride channel and is highly resistant to avermectins.

[2] = system: C. elegans CB3474 ben-1(e1880) III.; test: Chitinase assay (reproductive capacity); format: in vivo; conditions: Caenorhabditis elegans; mebendazole-resistant strain
Protocol: as §1, §2, §3

[3] = system: C. elegans ZZ15 lev-8(x15) X.; test: Chitinase assay (reproductive capacity); format: in vivo; conditions: Caenorhabditis elegans; levamisole-resistant strain
Protocol: as §1, §2, §3

[4] = system: C. elegans CB211 lev-1(e211) IV.; test: Chitinase assay (reproductive capacity); format: in vivo; conditions: Caenorhabditis elegans; levamisole-resistant strain
Protocol: as §1, §2, §3

[5] = system: Arabidopsis thaliana Col-0; test: Germination rate and phytotoxicity; format: in vivo; conditions: for average fraction of germinated seeds: 5 DPS; for main root length / plant weight: 10 DPS
Procedure, shortened: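 Sterilized Col-0 seeds sown on 1/2 MS with compounds at 5, 10, 50 and 100 μM in 0.3% DMSO (DMSO mock), grown under 16 h light/8 h dark at 22 °C/20 °C. Germination rate scored at day 5; primary root length and seedling weight after further 5 days.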

C. elegans N2 wild-type = test: Chitinase assay (reproductive capacity); format: in vivo, Caenorhabditis elegans; conditions: Caenorhabditis elegans
Procedure, shortened: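 Wild-type N2 L1 larvae were exposed to compounds for 4 days, then populations were examined microscopically and Chitinase activity, released at hatching, was measured as a read-out of reproduction. Failure from acute or reproductive toxicity or developmental defects is detected.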

Skin fibroblasts (BJ) = test: Resazurin assay, 3-day treatment; format: cell-based, human; conditions: for Average viability (signal intensity relative to control): BJ
xL3 H. contortus = test: Motility on WMicrotracker ONE; format: in vivo; conditions: 48 h; for reduction of movement rates: 50 µM
Protocol: H. contortus L3 were obtained by culturing feces collected from experimentally infected sheep (located in the facilities of the Instituto de Ganadera de Montaa, Leon, Spain) in aerated and humidified closed containers, which were placed in a climatic chamber at 28 °C for 5 days. Larvae were recovered by immersing the feces in tap water for 5 h to stimulate migration. The suspension was then filtered through a 20 μm sieve. Subsequently, larvae were collected using a Baermann apparatus with a 30 μm mesh overnight at 23 °C. Exsheathment of L3 larvae was performed by incubating them in 0.1% (v/v) sodium hypochlorite for 1 h at room temperature on a rotator, followed by three washes with tap water to remove residual bleach.
The effect of compounds on motility of H. contortus, D. destructor, and H. schachtii was evaluated using the WMicrotracker ONE platform according to previously published protocols. ,
We mostly focused on the three derivatives containing a halogen substitution in the 4-position of the phenyl ring, namely, i-19, i-20, and i-21. An initial experiment was also conducted with a representative compound with an aliphatic chain, namely, i-12, in which we observed only a relatively small effect on the motility of larvae (approximately 30% decrease in motility of nematodes treated with 100 μM of the compound after 48 h in comparison to vehicle-treated worms; Figure S2.7). […] The effect was apparent starting at 3 h and beyond. At 48 h, the latest time point was tested, and the movement rates of nematodes exposed to 50 μM of i-19, i-20, and i-21 were reduced by 76%, 80%, and 82%, respectively.

Compound | IC50 [1] [µM] | IC50 [2] [µM] | IC50 [3] [µM] | IC50 [4] [µM] | IC50 (C. elegans N2 wild-type) [µM] | average fraction of germinated seeds ([5]; 5 µM) | main root length ([5]; 5 µM) [mm] | plant weight ([5]; 5 µM) [mg] | average fraction of germinated seeds ([5]; 10 µM) | main root length ([5]; 10 µM) [mm] | plant weight ([5]; 10 µM) [mg] | average fraction of germinated seeds ([5]; 50 µM) | main root length ([5]; 50 µM) [mm] | plant weight ([5]; 50 µM) [mg] | Average viability (signal intensity relative to control) (Skin fibroblasts (BJ); 10 µM) | Average viability (signal intensity relative to control) (Skin fibroblasts (BJ); 20 µM) | Average viability (signal intensity relative to control) (Skin fibroblasts (BJ); 40 µM) | average fraction of germinated seeds ([5]; 100 µM) | main root length ([5]; 100 µM) [mm] | plant weight ([5]; 100 µM) [mg] | further results
CCCOc1ccc(-c2ccc3[nH]ccc3c2)cc1 [i-13] | 8.45 ± 1.36 | 8.28 ± 0.99 | 7.63 ± 0.91 | 8.8 ± 1.21 | 7.09 ± 0.72 | 0.98 | 40.24 | 37.8 | 0.93 | 39.42 | 36.95 | 0.91 | 36.26 | 26.29 | 0.97 ± 0.01 | 1 ± 0.05 | 0.98 ± 0.03 |  |  |  | 
Clc1ccc(-c2ccc3[nH]ccc3c2)cc1 [i-19] | 5.15 ± 1.01 | 6.61 ± 0.85 | 5.92 ± 0.39 | 6.8 ± 1.95 | 6.67 ± 0.6 | 0.93 | 38.83 | 32.28 | 0.96 | 37.74 | 30.72 | 0.97 | 33.27 | 24.85 | 0.98 ± 0.02 | 1.02 ± 0.06 | 1 ± 0.03 | 0.93 | 19.96 | 15.22 | effect on the viability of fibroblasts (Skin fibroblasts (BJ); up to 40 μM): no effect; reduction of movement rates (xL3 H. contortus): 76%

Now from value to compound, other results behind:

IC50 [1] [µM] | IC50 [2] [µM] | IC50 [3] [µM] | IC50 [4] [µM] | IC50 (C. elegans N2 wild-type) [µM] | Compound | average fraction of germinated seeds ([5]; 5 µM) | main root length ([5]; 5 µM) [mm] | plant weight ([5]; 5 µM) [mg] | average fraction of germinated seeds ([5]; 10 µM) | main root length ([5]; 10 µM) [mm] | plant weight ([5]; 10 µM) [mg] | average fraction of germinated seeds ([5]; 50 µM) | main root length ([5]; 50 µM) [mm] | plant weight ([5]; 50 µM) [mg] | Average viability (signal intensity relative to control) (Skin fibroblasts (BJ); 10 µM) | Average viability (signal intensity relative to control) (Skin fibroblasts (BJ); 20 µM) | Average viability (signal intensity relative to control) (Skin fibroblasts (BJ); 40 µM) | average fraction of germinated seeds ([5]; 100 µM) | main root length ([5]; 100 µM) [mm] | plant weight ([5]; 100 µM) [mg] | further results
7.59 ± 1.99 | 8.32 ± 0.74 | 8.03 ± 1.13 | 8.69 ± 1.26 | 9.6 ± 0.9 | CCCOc1cccc(-c2ccc3[nH]ccc3c2)c1 [i-12] | 0.96 | 37.25 | 32.51 | 0.93 | 38.66 | 34.91 | 0.93 | 35.82 | 27.55 | 0.96 ± 0.01 | 1.04 ± 0.05 | 0.96 ± 0.03 |  |  |  | decrease in motility in comparison to vehicle-treated worms (xL3 H. contortus; 100 µM): approximately 30%
10.4 ± 1.09 | 9.97 ± 1.06 | 11 ± 0.51 | 9.02 ± 0.75 | 9.05 ± 0.62 | Fc1ccc(-c2ccc3[nH]ccc3c2)cc1 [i-20] | 0.96 | 39.53 | 30.62 | 0.91 | 34.00 | 27.14 | 0.96 | 31.49 | 24.67 | 0.96 ± 0.01 | 0.98 ± 0.02 | 0.96 ± 0.03 | 0.95 | 25.82 | 16.94 | reduction of movement rates (xL3 H. contortus): 80%
10.4 ± 0.41 | 9.01 ± 0.78 | 10.6 ± 0.48 | 10.1 ± 0.39 | 8.58 ± 0.99 | FC(F)(F)Oc1ccc(-c2ccc3[nH]ccc3c2)cc1 [i-21] | 0.98 | 41.56 | 34.37 | 1.00 | 42.21 | 36.56 | 1.00 | 35.82 | 24.65 | 0.94 ± 0.02 | 0.96 ± 0.04 | 0.87 ± 0.03 | 0.96 | 30.90 | 21.97 | reduction of movement rates (xL3 H. contortus): 82%
